# Data published in patent publication US7541379B2, “Di(amido-substituted)heteroarene compounds as osteoblastogenesis agents” (The University of Hong Kong, priority 2005, dated 2009).
# Entries after “also recorded” stand apart in the source; their conditions may differ.
# Experiments:
# MC3T3-E1 (clone 4) cells [1] = experiment: Bone nodule formation and mineralization (Alizarin red stain); assay type: cell-based; conditions: 0.01 to 1 μg/mL, 26 days, osteogenic conditions
# Description: Cells were washed twice with ice-cold PBS and then fixed in ice-cold fixative (10% formalin in PBS) for 15 min. After washed with deionized water, fixed cells were stained with 1% alizarin S solution, pH 4.2 for 15 min and then were washed thoroughly with deionized water. Mineralized matrix was then detected.
# osterix mRNA = experiment: Osterix mRNA expression by real-time quantitative RT-PCR in MC3T3-E1 (clone 4) cells; assay type: cell-based; conditions: 1 μg/mL (high concentrations), 4 days, osteogenic medium
# Description: (§1) Cell culture. MC3T3-E1 (clone 4) cells ([…], Manassas, Va., U.S.A.) were maintained in complete growth medium, i.e., alpha-MEM supplemented with 100 U/mL penicillin, 100 μg/mL streptomycin, and 10% heat-inactivated fetal bovine serum (JRH Biosciences, Lenexa, Kans., U.S.A. Ascorbic acid (AsA) and β-glycerophosphate (β-GP) were purchased from Sigma-Aldrich Co. (St. Louis, […]., U.S.A.). For the screening of osteoblastogenesis-inducing compounds, cells were plated in 24-well plates in complete growth medium at 5×10^4 cells/cm^2 and after overnight incubation, potential osteoblastogenesis modulating agents were added at 3 different concentrations, each with 10 fold difference. […]
# (§2) Real-time quantitative reverse transcription (RT) PCR. […] ALP and osterix mRNA expression was determined by RT followed by real-time TaqMan PCR analysis. […] All PCR reactions were performed in triplicate and data obtained were analyzed using the comparative CT method (Applied Biosystems) with ALP/osterix signals normalized to 18S signal for each sample.
# MC3T3-E1 (clone 4) cells were cultured for 4 days, and total RNA was extracted. […] Expression level of osterix expression in MC3T3-E1 (clone 4) cells was determined using Real-Time TaqMan PCR. […]
# ALP mRNA = ALP mRNA expression by real-time quantitative RT-PCR in MC3T3-E1 (clone 4) cells; assay type: cell-based; conditions: 4 days, osteogenic medium
# Description: as §1, §2
# MC3T3-E1 (clone 4) cells were cultured for 4 days, and total RNA was extracted. […] Expression level of osterix expression in MC3T3-E1 (clone 4) cells was determined using Real-Time TaqMan polymerase chain reaction (PCR). […]
# MC3T3-E1 (clone 4) cells [2] = experiment: MTT-based cell proliferation assay; conditions: 0.01 to 1 μg/mL, 2 days, osteogenic medium
# Description: Cell proliferation assay. Cell proliferation studies were performed as previously described using MTT-based (GE Healthcare, Piscataway, N.J., USA) cell proliferation assays (Cheung et a/, FEBS Lett (2006), 580, 121). After treatment with potential osteoblastogenesis modulating agents for 2 days, MTT was added at a final concentration of 0.5 mg/ml for 3 h, cells were solubilized with isopropanol containing 0.1% sodium dodecyl sulfate and 0.04 N hydrochloric acid, and the absorbance measured at 570 nm. All experiments were repeated three times.
# Cell proliferation studies were performed as previously described using MTT (GE Healthcare, Piscataway, N.J., USA) assays (Cheung et al, FEBS Lett (2006), 580, 121). After treatment with the candidate compounds (concentrations 0.01 to 1 μg/mL) for 2 days, MTT was added at a final concentration of 0.5 mg/ml for 3 h, cells were solubilized with isopropanol containing 0.1% sodium dodecyl sulfate and 0.04 N hydrochloric acid, and the absorbance measured at 570 nm. All experiments were repeated three times.
# [3] = Cytotoxicity by standard MTT assay on Vero cells; assay type: cell-based, African green monkey; conditions: African green monkey, MTT assay, read-out: TC50 (the source's name)
# Description: (§3) Cytotoxicity assay. Vero cells, an African green monkey cell line were purchased from American Type Culture Collection (ATCC) and Cell Proliferation Kit I MTT (3-[4,5-dimethylth-iazol-2-yl]-2,5-diphenyltetrazolium bromide) assay was purchased from Roche. Normal human lung fibroblast cell line (CCD-19Lu) was obtained commercially from ATCC. CCD-19Lu cells were maintained in a minimum essential medium with Earle's balanced salts (MEM). The media were supplemented with L-glutamine (2 mM), fetal bovine serum (10%), penicillin (100 U/mL) and streptomycin (100 μg/mL). Cultures were incubated at 37° C. in a 5% CO2/95% air humidified atmosphere. Cell culture flasks and 96-well microtitre plates were purchased from Nalge Nunc Int. Culture medium, other medium constituents and phosphate buffered saline (PBS) were from Gibco BRL.
# (§4) The cytotoxicity of selected compounds was determined by MTT according to manufacturer's (Roche) instructions. The experiment (cell viability using MTT as an indicator) was carried out in triplicates. The TC50 (on Vero cells, an African green monkey cell line) is ca. 50 μM, it is concluded that these compounds may be useful for osteoblastogenesis development.
# [4] = test system: African green monkey Vero cells; experiment: Cytotoxicity by standard MTT assay on Vero cells; assay type: cell-based
# Description: as §3, §4
# CCD-19L cells = experiment: Cytotoxicity by MTT assay on CCD-19L cells (vs vehicle control); assay type: cell-based, human; conditions: 72 h
# Description: As used herein, the term “CCD-19L cells” described herein refers to normal human lung fibroblast cell line.
# as §3
# Assays on cytotoxic effects were conducted in 96-well flat-bottomed microtitre plates. […] The formation of formazan was measured with a microtitre plate reader at 550 nm and the percentages of cell survival were determined. The cytotoxicity was evaluated based on the percentage cell survival in a dose dependent manner relative to the negative control (FIG. 8).
# ALP = ALP enzyme activity assay (PNPP hydrolysis) in MC3T3-E1 (clone 4) cells; assay type: cell-based
# Description: Cell culture. […]
# ALP assay. ALP activity was measured as p-nitrophenol produced from the hydrolysis of p-nitrophenyl phosphate (PNPP). […] The reaction was stopped by the addition of NaOH (final concentration, 0.5 M) and the absorbance was measured at 410 nm. Enzyme activity was normalized to the protein content determined using Protein Assay Kit (Bio-Rad). […]
# MC3T3-E1 (clone 4) cells were cultured for 4, 10, and 14 days with the presence of VCM supplemented with different concentrations (range from 0.01 to 1 μg/mL) of di(amido-substituted)heteroarene compounds. […] ALP activity was measured as p-nitrophenol produced from the hydrolysis of p-nitrophenyl phosphate (PNPP). […] The reaction was stopped by the addition of NaOH (final concentration, 0.5 M) and the absorbance measured at 410 nm. Enzyme activity was normalized to the protein content determined using Protein Assay Kit (Bio-Rad). […]
structure (smiles),measurement,setting,value
Cc1ccc(S(=O)(=O)Nc2cn(C)cc2NS(=O)(=O)c2ccc(C)cc2)cc1 [compound 1],effect on mineralization of bone nodules,MC3T3-E1 (clone 4) cells [1],potentiated mineralization of bone nodules
same,effect on osterix mRNA expression,osterix mRNA,effectively up-regulated mRNA expression of osterix; also recorded: enhanced osterix mRNA expression
same,ALP mRNA expression up-regulated,ALP mRNA; 0.1 μg/mL,16%
same,effect on ALP mRNA expression,ALP mRNA; 0.1 and 1 μg/mL,enhanced ALP mRNA expression
same,effect on cell proliferation (MTT),MC3T3-E1 (clone 4) cells [2],did not alter
same,CC50,[3],57 µM
same,CC50,"[4]; MTT assay, read-out: TC50 (the source's name)",≤ 57 µM
same,cytotoxicity on Vero cells,[4]; standard MTT assay,low cytotoxicity
same,cytotoxicity on CCD-19L cells,CCD-19L cells,low cytotoxicity
same,effect on ALP enzyme activity,"ALP; 0.01 to 1 μg/mL, osteogenic medium, 4, 10 and 14 days",significantly enhanced ALP enzyme activity in a dose-dependent manner
same,ALP activity up-regulated compared to the control,"ALP; 14 days of treatment, 0.1 μg/mL, osteogenic medium",2 fold
